The supplement of paper PMC10307832

Assays:
Test in all cases: relative viability (nuclei count vs DMSO), 5 days (fraction); higher = more cells survive
SK-MES-1 = test system: SK-MES-1
Summary of the method: (§1)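 The day after seeding in 1536-well plates, lung cancer cell lines were treated by pin tool with a single drug, or with a fixed anchor-drug dose together with five library-drug doses (not always all listed) in √10 steps. After 5 days, a combined fix-and-stain solution (final 0.05% Triton X-100, 1% formaldehyde, 1 ug/ml Hoechst) was added. Nuclei counted on 4× images gave relative viability as treated counts over vehicle counts, reported as the median of duplicate plates.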

PC-14 = test system: PC-14
Summary of the method: as §1

NCI-H460 = test system: NCI-H460
Summary of the method: as §1

NCI-H322M = test system: NCI-H322M
Summary of the method: as §1

NCI-H1915 = test system: NCI-H1915
Summary of the method: as §1

NCI-H1563 = test system: NCI-H1563
Summary of the method: as §1

NCI-H1651 = test system: NCI-H1651
Summary of the method: as §1

NCI-H661 = test system: NCI-H661
Summary of the method: as §1

NCI-H3122 = test system: NCI-H3122
Summary of the method: as §1

RERF-LC-KJ = test system: RERF-LC-KJ
Summary of the method: as §1

NCI-H727 = test system: NCI-H727
Summary of the method: as §1

NCI-H2347 = test system: NCI-H2347
Summary of the method: as §1

NCI-H596 = test system: NCI-H596
Summary of the method: as §1

LXF-289 = test system: LXF-289
Summary of the method: as §1

NCI-H1355 = test system: NCI-H1355
Summary of the method: as §1

NCI-H1792 = test system: NCI-H1792
Summary of the method: as §1

NCI-H1755 = test system: NCI-H1755
Summary of the method: as §1

NCI-H441 = test system: NCI-H441
Summary of the method: as §1

LCLC-103H = test system: LCLC-103H
Summary of the method: as §1

NCI-H520 = test system: NCI-H520
Summary of the method: as §1

Structure (SMILES): O=c1cc(-c2cccc3c2Sc2ccccc2S3)oc(N2CCOCC2)c1 + Cc1nc(NC(=O)N2CCC[C@H]2C(N)=O)sc1-c1ccnc(C(C)(C)C(F)(F)F)c1 [Alpelisib] (partner 2 µM)
- relative viability (SK-MES-1; first compound 0.08 µM): 0.864
- relative viability (SK-MES-1; first compound 0.253 µM): 1.09
- relative viability (SK-MES-1; first compound 0.8 µM): 0.993
- relative viability (SK-MES-1; first compound 2.53 µM): 0.824
- relative viability (SK-MES-1; first compound 8 µM): 0.845
- relative viability (PC-14; first compound 0.08 µM): 0.936
- relative viability (PC-14; first compound 0.253 µM): 1.17
- relative viability (PC-14; first compound 0.8 µM): 1.11
- relative viability (PC-14; first compound 2.53 µM): 0.821
- relative viability (PC-14; first compound 8 µM): 1.05
- relative viability (NCI-H460; first compound 0.08 µM): 0.472
- relative viability (NCI-H460; first compound 0.253 µM): 0.682
- relative viability (NCI-H460; first compound 0.8 µM): 0.451
- relative viability (NCI-H460; first compound 2.53 µM): 0.57
- relative viability (NCI-H460; first compound 8 µM): 0.394
- relative viability (NCI-H322M; first compound 0.08 µM): 0.784
- relative viability (NCI-H322M; first compound 0.253 µM): 0.79
- relative viability (NCI-H322M; first compound 0.8 µM): 0.79
- relative viability (NCI-H322M; first compound 2.53 µM): 0.964
- relative viability (NCI-H322M; first compound 8 µM): 0.838
- relative viability (NCI-H1915; first compound 0.08 µM): 1.15
- relative viability (NCI-H1915; first compound 0.253 µM): 1.12
- relative viability (NCI-H1915; first compound 0.8 µM): 1.07
- relative viability (NCI-H1915; first compound 2.53 µM): 0.994
- relative viability (NCI-H1915; first compound 8 µM): 1.11
- relative viability (NCI-H1563; first compound 0.08 µM): 0.917
- relative viability (NCI-H1563; first compound 0.253 µM): 1.04
- relative viability (NCI-H1563; first compound 0.8 µM): 0.853
- relative viability (NCI-H1563; first compound 2.53 µM): 0.848
- relative viability (NCI-H1563; first compound 8 µM): 0.822
- relative viability (NCI-H1651; first compound 0.08 µM): 1.02
- relative viability (NCI-H1651; first compound 0.253 µM): 1.02
- relative viability (NCI-H1651; first compound 0.8 µM): 1.08
- relative viability (NCI-H1651; first compound 2.53 µM): 0.963
- relative viability (NCI-H1651; first compound 8 µM): 1.21
- relative viability (NCI-H661; first compound 0.08 µM): 0.541
- relative viability (NCI-H661; first compound 0.253 µM): 0.753
- relative viability (NCI-H661; first compound 0.8 µM): 0.594
- relative viability (NCI-H661; first compound 2.53 µM): 0.512
- relative viability (NCI-H661; first compound 8 µM): 0.98
- relative viability (NCI-H3122; first compound 0.08 µM): 0.731
- relative viability (NCI-H3122; first compound 0.253 µM): 0.902
- relative viability (NCI-H3122; first compound 0.8 µM): 0.796
- relative viability (NCI-H3122; first compound 2.53 µM): 0.746
- relative viability (NCI-H3122; first compound 8 µM): 0.881
- relative viability (RERF-LC-KJ; first compound 0.08 µM): 0.83
- relative viability (RERF-LC-KJ; first compound 0.253 µM): 0.917
- relative viability (RERF-LC-KJ; first compound 0.8 µM): 0.824
- relative viability (RERF-LC-KJ; first compound 2.53 µM): 0.741
- relative viability (RERF-LC-KJ; first compound 8 µM): 0.939
- relative viability (NCI-H727; first compound 0.253 µM): 0.553
- relative viability (NCI-H727; first compound 2.53 µM): 0.47
- relative viability (NCI-H727; first compound 8 µM): 0.761
- relative viability (NCI-H2347; first compound 0.08 µM): 1.03
- relative viability (NCI-H2347; first compound 0.253 µM): 1.14
- relative viability (NCI-H2347; first compound 0.8 µM): 1.1
- relative viability (NCI-H2347; first compound 2.53 µM): 1.11
- relative viability (NCI-H2347; first compound 8 µM): 1.16
- relative viability (NCI-H596; first compound 0.08 µM): 0.588
- relative viability (NCI-H596; first compound 0.253 µM): 0.55
- relative viability (NCI-H596; first compound 0.8 µM): 0.5
- relative viability (NCI-H596; first compound 2.53 µM): 0.469
- relative viability (NCI-H596; first compound 8 µM): 0.594
- relative viability (LXF-289; first compound 0.08 µM): 1.1
- relative viability (LXF-289; first compound 0.253 µM): 1.07
- relative viability (LXF-289; first compound 0.8 µM): 1.14
- relative viability (LXF-289; first compound 2.53 µM): 1.01
- relative viability (LXF-289; first compound 8 µM): 1.07
- relative viability (NCI-H1355; first compound 0.08 µM): 0.726
- relative viability (NCI-H1355; first compound 0.253 µM): 0.949
- relative viability (NCI-H1355; first compound 0.8 µM): 0.601
- relative viability (NCI-H1355; first compound 2.53 µM): 0.748
- relative viability (NCI-H1355; first compound 8 µM): 0.704
- relative viability (NCI-H1792; first compound 0.253 µM): 0.722
- relative viability (NCI-H1792; first compound 0.8 µM): 0.741
- relative viability (NCI-H1792; first compound 2.53 µM): 0.674
- relative viability (NCI-H1792; first compound 8 µM): 0.712
- relative viability (NCI-H1755; first compound 0.08 µM): 0.889
- relative viability (NCI-H1755; first compound 0.253 µM): 1.22
- relative viability (NCI-H1755; first compound 0.8 µM): 0.945
- relative viability (NCI-H1755; first compound 2.53 µM): 0.925
- relative viability (NCI-H1755; first compound 8 µM): 0.964
- relative viability (NCI-H441; first compound 0.08 µM): 0.736
- relative viability (NCI-H441; first compound 0.253 µM): 0.933
- relative viability (NCI-H441; first compound 0.8 µM): 1.2
- relative viability (NCI-H441; first compound 2.53 µM): 0.551
- relative viability (NCI-H441; first compound 8 µM): 0.691
- relative viability (LCLC-103H; first compound 0.08 µM): 0.994
- relative viability (LCLC-103H; first compound 0.253 µM): 1.06
- relative viability (LCLC-103H; first compound 0.8 µM): 0.837
- relative viability (LCLC-103H; first compound 2.53 µM): 0.971
- relative viability (LCLC-103H; first compound 8 µM): 0.963
- relative viability (NCI-H520; first compound 0.08 µM): 0.874
- relative viability (NCI-H520; first compound 0.253 µM): 0.979
- relative viability (NCI-H520; first compound 0.8 µM): 1.09
- relative viability (NCI-H520; first compound 2.53 µM): 1.03
- relative viability (NCI-H520; first compound 8 µM): 0.971
